{"source": "patent US20250066319A1", "about": "“NOVEL ACID ADDITION SALT AND CRYSTALLINE FORM OF (2R, 3S)-2-(3-(4,5-DICHLORO-1H-BENZO[d]IMIDAZOL-1-YL)PROPYL)PIPERIDIN-3-OL” (Daewoong Pharmaceutical Co., Ltd., priority 2021, published 2025)", "assay_type_in_all_cases": "physicochemical", "key": {"[1]": {"experiment": "Hygroscopicity test (weight change in desiccators of constant relative humidity)", "parameters": "scale not given here", "details": "room temperature, one day", "experimental": "The hygroscopicity tests of the acid addition salts prepared in Examples 1-1 to 1-6 and Comparative Example 1 were performed.\nAfter one day, the change in weight was measured, then transferred to another desiccator and the previous experiment was repeated. At this time, for sorption analysis, the weight change was measured by moving the sample from a low-humidity desiccator to a high-humidity desiccator, and for desorption analysis, the weight change was measured by transferring the sample from a high-humidity desiccator with high humidity to a low-humidity desiccator."}, "[2]": {"experiment": "Stability confirmation: severe test with respect to moisture, HPLC peak area of main component", "details": "93% RH, open beaker", "experimental": "(§1) The acid addition salts prepared in some Examples and Comparative Examples were subjected to stability tests against high temperature and high humidity.\nAnd, the severe tests with respect to moisture were performed by placing 50 mg of a sample in a 10 ml beaker, and measuring the content of impurities using HPLC (Azura, KNAUER, P6.1 1 L, DAD 6.1 L) after 1 week, 2 weeks, 4 weeks, and 8 weeks while storing the sample in a 93% RH desiccator in a state that the lid was not closed so that the sample has sufficient contact with the moisture in the air.\n(§2) At a fixed time after the start of the test, one vial or beaker was taken out from each time point (the number of samples per test: n=1), and impurities were analyzed using HPLC under the conditions shown in Table 3 below. Then, the peak area was determined through integration for all the detected peaks, and then the relative peak area (%) for the main component was calculated and expressed as an average value."}, "[3]": {"experiment": "Stability confirmation: severe test with respect to temperature, HPLC peak area of main component", "details": "60° C., relative humidity less than 10%", "experimental": "as §1\nSpecifically, the severe tests with respect to temperature were performed by placing 50 mg of a sample in a vial, closing the lid, and then measuring the content of impurities using HPLC (Azura, KNAUER, P6.1 1 L, DAD 6.1 L) after 1 week, 2 weeks, 4 weeks, and 8 weeks while storing in a chamber at 60° C. and a relative humidity of less than 10%.\nas §2"}, "[4]": {"experiment": "Differential scanning calorimetry analysis after severe test with respect to temperature", "details": "high temperature condition (60° C.), 1 week and 8 weeks; Dihydrochloride", "experimental": "For (2R,3S)-2-(3-(4,5-dichloro-1H-benzo[d]imidazol-1-yl)propyl)piperidin-3-ol monohydrochloride prepared in Example 1-1 and (2R,3S)-2-(3-(4,5-dichloro-1H-benzo[d]imidazol-1-yl)propyl)piperidin-3-ol dihydrochloride prepared in Comparative Example 1, each beaker was taken out 1 week and 8 weeks after the start of the test from the desiccator where the severe tests with respect to temperature were in progress, and the differential scanning calorimetry analysis was performed. At this time, the differential scanning calorimetry analysis was performed using a differential scanning calorimeter (DSC Q20, manufactured by TA Instruments) in a tightly closed pan under nitrogen purge at a scan rate of 10° C./min while raising the temperature from 20° C. to 300° C."}}, "note": "Counter-ions that a name gives are not always drawn.", "data": [{"compound": "O[C@H]1CCCN[C@@H]1CCCn1cnc2c(Cl)c(Cl)ccc21", "note": "[Example 1-4, (2R,3S)-2-(3-(4,5-dichloro-1H-benzo[d]imidazol-1-yl)propyl)piperidin-3-ol Hemi-Oxalate]", "values": [{"measurement": "weight change, desorption", "setting": "[1]; 11% RH", "value": 101.0}, {"measurement": "weight change, desorption", "setting": "[1]; 33% RH", "value": 101.0}, {"measurement": "weight change, desorption", "setting": "[1]; 54% RH", "value": 101.9}, {"measurement": "weight change, desorption", "setting": "[1]; 75% RH", "value": 103.2}, {"measurement": "weight change, sorption", "setting": "[1]; 11% RH", "value": 100}, {"measurement": "weight change, sorption", "setting": "[1]; 33% RH", "value": 101.0}, {"measurement": "weight change, sorption", "setting": "[1]; 54% RH", "value": 101.6}, {"measurement": "weight change, sorption", "setting": "[1]; 75% RH", "value": 101.9}, {"measurement": "weight change, sorption", "setting": "[1]; 93% RH", "value": 105.4}]}, {"compound": "O[C@H]1CCCN[C@@H]1CCCn1cnc2c(Cl)c(Cl)ccc21", "note": "[Example 1-5, (2R,3S)-2-(3-(4,5-dichloro-1H-benzo[d]imidazol-1-yl)propyl)piperidin-3-ol Hemi-Maleate]", "values": [{"measurement": "relative peak area for the main component (HPLC)", "setting": "[2]; after 2 weeks", "value": 99.8, "unit": "%"}, {"measurement": "relative peak area for the main component (HPLC)", "setting": "[2]; after 4 weeks", "value": 99.8, "unit": "%"}, {"measurement": "relative peak area for the main component (HPLC)", "setting": "[2]; after 8 weeks", "value": 99.9, "unit": "%"}, {"measurement": "relative peak area for the main component (HPLC)", "setting": "[2]; initial", "value": 99.8, "unit": "%"}, {"measurement": "relative peak area for the main component (HPLC)", "setting": "[3]; after 2 weeks", "value": 99.8, "unit": "%"}, {"measurement": "relative peak area for the main component (HPLC)", "setting": "[3]; after 4 weeks", "value": 99.7, "unit": "%"}, {"measurement": "relative peak area for the main component (HPLC)", "setting": "[3]; after 8 weeks", "value": 99.9, "unit": "%"}, {"measurement": "relative peak area for the main component (HPLC)", "setting": "[3]; initial", "value": 99.8, "unit": "%"}, {"measurement": "weight change, desorption", "setting": "[1]; 11% RH", "value": 99.5}, {"measurement": "weight change, desorption", "setting": "[1]; 33% RH", "value": 99.8}, {"measurement": "weight change, desorption", "setting": "[1]; 54% RH", "value": 99.8}, {"measurement": "weight change, desorption", "setting": "[1]; 75% RH", "value": 100.5}, {"measurement": "weight change, sorption", "setting": "[1]; 11% RH", "value": 100}, {"measurement": "weight change, sorption", "setting": "[1]; 33% RH", "value": 100}, {"measurement": "weight change, sorption", "setting": "[1]; 54% RH", "value": 100.7}, {"measurement": "weight change, sorption", "setting": "[1]; 75% RH", "value": 100.9}, {"measurement": "weight change, sorption", "setting": "[1]; 93% RH", "value": 101.6}]}, {"compound": "O[C@H]1CCCN[C@@H]1CCCn1cnc2c(Cl)c(Cl)ccc21", "note": "[Example 1-2, (2R,3S)-2-(3-(4,5-dichloro-1H-benzo[d]imidazol-1-yl)propyl)piperidin-3-ol Dioxalate I]", "values": [{"measurement": "relative peak area for the main component (HPLC)", "setting": "[2]; after 1 week", "value": 99.3, "unit": "%"}, {"measurement": "relative peak area for the main component (HPLC)", "setting": "[2]; after 2 weeks", "value": 99.7, "unit": "%"}, {"measurement": "relative peak area for the main component (HPLC)", "setting": "[2]; after 4 weeks", "value": 99.8, "unit": "%"}, {"measurement": "relative peak area for the main component (HPLC)", "setting": "[2]; after 8 weeks", "value": 99.8, "unit": "%"}, {"measurement": "relative peak area for the main component (HPLC)", "setting": "[2]; initial", "value": 99.8, "unit": "%"}, {"measurement": "relative peak area for the main component (HPLC)", "setting": "[3]; after 1 week", "value": 99.9, "unit": "%"}, {"measurement": "relative peak area for the main component (HPLC)", "setting": "[3]; after 2 weeks", "value": 99.8, "unit": "%"}, {"measurement": "relative peak area for the main component (HPLC)", "setting": "[3]; after 4 weeks", "value": 99.7, "unit": "%"}, {"measurement": "relative peak area for the main component (HPLC)", "setting": "[3]; after 8 weeks", "value": 99.8, "unit": "%"}, {"measurement": "relative peak area for the main component (HPLC)", "setting": "[3]; initial", "value": 99.8, "unit": "%"}, {"measurement": "weight change, desorption", "setting": "[1]; 11% RH", "value": 100}, {"measurement": "weight change, desorption", "setting": "[1]; 33% RH", "value": 101.6}, {"measurement": "weight change, desorption", "setting": "[1]; 54% RH", "value": 102}, {"measurement": "weight change, desorption", "setting": "[1]; 75% RH", "value": 102.9}, {"measurement": "weight change, sorption", "setting": "[1]; 11% RH", "value": 100}, {"measurement": "weight change, sorption", "setting": "[1]; 33% RH", "value": 101.1}, {"measurement": "weight change, sorption", "setting": "[1]; 54% RH", "value": 101.8}, {"measurement": "weight change, sorption", "setting": "[1]; 75% RH", "value": 102.9}, {"measurement": "weight change, sorption", "setting": "[1]; 93% RH", "value": 105.6}]}, {"compound": "(2R,3S)-2-(3-(4,5-dichloro-1H-benzo[d]imidazol-1-yl)propyl)piperidin-3-ol Dioxalate II [Example 1-3]", "values": [{"measurement": "relative peak area for the main component (HPLC)", "setting": "[2]; after 1 week", "value": 99.7, "unit": "%"}, {"measurement": "relative peak area for the main component (HPLC)", "setting": "[2]; after 2 weeks", "value": 99.8, "unit": "%"}, {"measurement": "relative peak area for the main component (HPLC)", "setting": "[2]; after 4 weeks", "value": 99.9, "unit": "%"}, {"measurement": "relative peak area for the main component (HPLC)", "setting": "[2]; after 8 weeks", "value": 99.9, "unit": "%"}, {"measurement": "relative peak area for the main component (HPLC)", "setting": "[2]; initial", "value": 99.8, "unit": "%"}, {"measurement": "relative peak area for the main component (HPLC)", "setting": "[3]; after 1 week", "value": 99.9, "unit": "%"}, {"measurement": "relative peak area for the main component (HPLC)", "setting": "[3]; after 2 weeks", "value": 99.8, "unit": "%"}, {"measurement": "relative peak area for the main component (HPLC)", "setting": "[3]; after 4 weeks", "value": 99.8, "unit": "%"}, {"measurement": "relative peak area for the main component (HPLC)", "setting": "[3]; after 8 weeks", "value": 99.9, "unit": "%"}, {"measurement": "relative peak area for the main component (HPLC)", "setting": "[3]; initial", "value": 99.8, "unit": "%"}, {"measurement": "weight change, desorption", "setting": "[1]; 11% RH", "value": 100}, {"measurement": "weight change, desorption", "setting": "[1]; 33% RH", "value": 100}, {"measurement": "weight change, desorption", "setting": "[1]; 54% RH", "value": 100.2}, {"measurement": "weight change, desorption", "setting": "[1]; 75% RH", "value": 100.8}, {"measurement": "weight change, sorption", "setting": "[1]; 11% RH", "value": 100}, {"measurement": "weight change, sorption", "setting": "[1]; 33% RH", "value": 100}, {"measurement": "weight change, sorption", "setting": "[1]; 54% RH", "value": 100}, {"measurement": "weight change, sorption", "setting": "[1]; 75% RH", "value": 101.3}, {"measurement": "weight change, sorption", "setting": "[1]; 93% RH", "value": 101.3}]}, {"compound": "O[C@H]1CCCN[C@@H]1CCCn1cnc2c(Cl)c(Cl)ccc21", "note": "[Comparative Example 1, (2R,3S)-2-(3-(4,5-dichloro-1H-benzo[d]imidazol-1-yl)propyl)piperidin-3-ol Dihydrochloride, reference compound]", "values": [{"measurement": "relative peak area for the main component (HPLC)", "setting": "[2]; after 1 week, Dihydrochloride", "value": 99.7, "unit": "%"}, {"measurement": "relative peak area for the main component (HPLC)", "setting": "[2]; after 2 weeks, Dihydrochloride", "value": 99.7, "unit": "%"}, {"measurement": "relative peak area for the main component (HPLC)", "setting": "[2]; after 4 weeks, Dihydrochloride", "value": 99.7, "unit": "%"}, {"measurement": "relative peak area for the main component (HPLC)", "setting": "[2]; after 8 weeks, Dihydrochloride", "value": 99.7, "unit": "%"}, {"measurement": "relative peak area for the main component (HPLC)", "setting": "[2]; initial, Dihydrochloride", "value": 99.6, "unit": "%"}, {"measurement": "relative peak area for the main component (HPLC)", "setting": "[3]; after 1 week, Dihydrochloride", "value": 99.7, "unit": "%"}, {"measurement": "relative peak area for the main component (HPLC)", "setting": "[3]; after 2 weeks, Dihydrochloride", "value": 99.7, "unit": "%"}, {"measurement": "relative peak area for the main component (HPLC)", "setting": "[3]; after 4 weeks, Dihydrochloride", "value": 99.8, "unit": "%"}, {"measurement": "relative peak area for the main component (HPLC)", "setting": "[3]; after 8 weeks, Dihydrochloride", "value": 99.7, "unit": "%"}, {"measurement": "relative peak area for the main component (HPLC)", "setting": "[3]; initial, Dihydrochloride", "value": 99.6, "unit": "%"}, {"measurement": "weight change, desorption", "setting": "[1]; 11% RH, Dihydrochloride", "value": 102.9}, {"measurement": "weight change, desorption", "setting": "[1]; 33% RH, Dihydrochloride", "value": 103.9}, {"measurement": "weight change, desorption", "setting": "[1]; 54% RH, Dihydrochloride", "value": 104.7}, {"measurement": "weight change, desorption", "setting": "[1]; 75% RH, Dihydrochloride", "value": 105.4}, {"measurement": "weight change, sorption", "setting": "[1]; 33% RH, Dihydrochloride", "value": 100.9}, {"measurement": "weight change, sorption", "setting": "[1]; 54% RH, Dihydrochloride", "value": 108}, {"measurement": "weight change, sorption", "setting": "[1]; 75% RH, Dihydrochloride", "value": 105.4}, {"measurement": "weight change, sorption", "setting": "[1]; 93% RH, Dihydrochloride", "value": 128}, {"measurement": "change in differential scanning calorimetry analysis pattern", "setting": "[4]", "value": "shows a change in the differential scanning calorimetry analysis pattern"}]}]}
